According to US4268664A, “Process for the preparation of 1-N-isoseryl- or 1-N-(L-4-amino-2-hydroxybutyryl)-3',4'-dideoxykanamycin B and intermediates thereof” (Zaidan Hojin Biseibutsu Kagaku Kenkyu Kai, priority 1978, dated 1981):
In brackets after ≈: the same amount, converted by molar mass. Where two headings read alike, the source gives them in different places.

Legend:
Type in all cases: cell-based
[1] = test system: Pro. rettgelli J-0026; test: Antibacterial activity (MIC), serial dilution method; conditions: nutrient agar, 37° C., 20 hours; read-out: MIC
[2] = test system: Serra. marcescens I-0043; test: as above; conditions: Serratia marcescens
[3] = test system: Serra. marcescens No. 1; test: as above; conditions: Serratia marcescens, nutrient agar, 37° C., 20 hours
[4] = test system: E. coli (M) Cast. & Chalm.NIHJ JC-2; test: as above; conditions: Escherichia coli, NIHJJC2; nutrient agar, 37° C., 20 hours; read-out: MIC
[5] = test system: Kleb. pneumoniae 22# 3038 (A-20680); test: as above; conditions: Klebsiella pneumoniae
[6] = test system: Pro. vulgaris OX19; test: as above; conditions: Proteus vulgaris, nutrient agar, 37° C., 20 hours
[7] = test system: E. coli A-0003; test: as above; conditions: Escherichia coli, A0003; nutrient agar, 37° C., 20 hours
[8] = test system: Sta. aureus Rosenbach FDA 209-P JC-1; test: as above; conditions: Staphylococcus aureus, FDA209; nutrient agar, 37° C., 20 hours
[9] = test system: Pro. mirabilis J-0010; test: as above; conditions: Proteus mirabilis, J0010; nutrient agar, 37° C., 20 hours; read-out: MIC
[10] = test system: Sal. typhi 0-901-W; test: as above; conditions: Salmonella enterica, 20 h
[11] = test system: Pro. vulgaris J-0001; test: as above; conditions: Proteus vulgaris, J0001; nutrient agar, 37° C., 20 hours; read-out: MIC
[12] = test system: E. coli JR 66/W 677(A-20683); test: as above; conditions: Escherichia coli; nutrient agar, 37° C., 20 hours; read-out: MIC
[13] = test system: Ps. aeruginosa M-0002; test: as above; conditions: Pseudomonas aeruginosa
[14] = test system: B. subtilis ATCC 6633; test: as above; conditions: Bacillus subtilis, ATCC6633; nutrient agar, 37° C., 20 hours
[15] = test system: Ps. aeruginosa IID 1210 (IFO 3455); test: as above; conditions: Pseudomonas aeruginosa; nutrient agar, 37° C., 20 hours; read-out: MIC
[16] = test system: Ps. aeruginosa NC-5; test: as above; conditions: Pseudomonas aeruginosa, NC5; nutrient agar, 37° C., 20 hours; read-out: MIC
[17] = test system: Ps. aeruginosa E-2; test: as above; conditions: Pseudomonas aeruginosa, E2; nutrient agar, 37° C., 20 hours; read-out: MIC
[18] = test system: Ps. aeruginosa M-0148; test: as above; conditions: Pseudomonas aeruginosa
[19] = test system: Sta. epidermidis 109; test: as above; conditions: Staphylococcus epidermidis, nutrient agar, 37° C., 20 hours
[20] = test system: Ps. aeruginosa IAM-1007; test: as above; conditions: Pseudomonas aeruginosa, IAM1007; nutrient agar, 37° C., 20 hours; read-out: MIC
[21] = test system: B. anthracis No. 119; test: microbe, parasite or virus in culture; conditions: Bacillus anthracis, NO.119, 20 h
[22] = test system: E. coli A-0001; test: Antibacterial activity (MIC), serial dilution method; conditions: Escherichia coli, A0001; nutrient agar, 37° C., 20 hours
[23] = test system: Sta. aureus ApO-1; test: as above; conditions: Staphylococcus aureus, APO1; nutrient agar, 37° C., 20 hours
[24] = test system: Sta. aureus No. 26; test: as above; conditions: Staphylococcus aureus, nutrient agar, 37° C., 20 hours
[25] = test system: Sta. epidermidis ATCC 14990; test: as above; conditions: Staphylococcus epidermidis, ATCC14990; nutrient agar, 37° C., 20 hours
[26] = test system: Sal. enteritidis No. 11(T-okai); test: as above; conditions: Salmonella enterica, nutrient agar, 37° C., 20 hours, read-out: MIC
[27] = test system: E. coli No. 29; test: as above; conditions: Escherichia coli, nutrient agar, 37° C., 20 hours
[28] = test system: Sta. aureus Smith S-424; test: as above; conditions: Staphylococcus aureus, SMITHS424; nutrient agar, 37° C., 20 hours
[29] = test system: Pro. morganii K-ono; test: as above; conditions: Morganella morganii; nutrient agar, 37° C., 20 hours
[30] = test system: E. coli W 677(A-20684); test: as above; conditions: Escherichia coli; nutrient agar, 37° C., 20 hours
Experimental: (§1) Antimicrobial spectra of 1-N-(L-isoseryl)- and 1-N-(L-4-amino-2-hydroxybutyryl)-3',4'-dideoxy-3',4'-didehydrokanamycin B (1-AHP-eno-DKB and 1-AHB-eno-DKB) are shown in the following table together with that of 1-N-(L-4-amino-2-hydroxybutyryl)-3',4'-dideoxykanamycin B (1-AHB-DKB).
(§2) The minimum inhibitory concentrations (mcg/ml) of the compounds tested against various microorganisms were determined according to a serial dilution method using nutrient agar medium at 37° C., the estimation being effected after 20 hours-incubation.

[31] = test system: Sal. species D-0001; test: as above; conditions: nutrient agar, 37° C., 20 hours
Experimental: as §1, §2

[32] = test system: Sal. species D-0029; test: as above; conditions: nutrient agar, 37° C., 20 hours
Experimental: as §1, §2

[33] = test system: Sal. species D-0006; test: as above; conditions: nutrient agar, 37° C., 20 hours
Experimental: as §1, §2

[34] = test system: Sta. aureus N-0089; test: as above; conditions: Staphylococcus aureus, N0089; nutrient agar, 37° C., 20 hours
[35] = test system: Sal. typhimurium LT-2; test: as above; conditions: Salmonella enterica, nutrient agar, 37° C., 20 hours, read-out: MIC
[36] = test system: Str. faecalis ATCC 8043; test: as above; conditions: Enterococcus faecalis, ATCC8043; nutrient agar, 37° C., 20 hours
[37] = test system: Serra. marcescens No. 2; test: as above; conditions: Serratia marcescens, nutrient agar, 37° C., 20 hours
[38] = test system: Kleb. pneumoniae; test: as above; conditions: Klebsiella pneumoniae
[39] = test system: Shigella dysenteriae Shigae; test: microbe, parasite or virus in culture; conditions: 20 h
[40] = test system: Ps. aeruginosa M-0032; test: Antibacterial activity (MIC), serial dilution method; conditions: Pseudomonas aeruginosa, M0032; nutrient agar, 37° C., 20 hours; read-out: MIC
[41] = test system: various microorganisms; test: antimicrobial activity (in words)
Experimental: as §2

[42] = nutrient agar, 37° C., 20 hours, read-out: MIC

NCC1C=CC(N)C(OC2C(N)CC(NC(=O)C(O)CN)C(OC3OC(CO)C(O)C(N)C3O)C2O)O1 [1-AHP-eno-DKB, 1-N-(L-isoseryl)-3',4'-dideoxy-3',4'-didehydrokanamycin B]
MIC [1]: 25 µg/mL (≈ 46.6 µM) | MIC ([2]; I0043, 20 h): 1.56 µg/mL (≈ 2.91 µM) | MIC [3]: 3.13 µg/mL (≈ 5.83 µM) | MIC [4]: 3.13 µg/mL (≈ 5.83 µM) | MIC ([5]; 20 h): 1.56 µg/mL (≈ 2.91 µM) | MIC [6]: 3.13 µg/mL (≈ 5.83 µM) | MIC [7]: 6.25 µg/mL (≈ 11.6 µM) | MIC [8]: 0.1 µg/mL (≈ 0.186 µM) | MIC [9]: 3.13 µg/mL (≈ 5.83 µM) | MIC [10]: 1.56 µg/mL (≈ 2.91 µM) | MIC [11]: 3.13 µg/mL (≈ 5.83 µM) | MIC [12]: 3.13 µg/mL (≈ 5.83 µM) | MIC ([13]; M0002, 20 h): 1.56 µg/mL (≈ 2.91 µM) | MIC [14]: 0.2 µg/mL (≈ 0.373 µM) | MIC [15]: 3.13 µg/mL (≈ 5.83 µM) | MIC [16]: 3.13 µg/mL (≈ 5.83 µM) | MIC [17]: 3.13 µg/mL (≈ 5.83 µM) | MIC ([18]; M0148, 20 h): 1.56 µg/mL (≈ 2.91 µM) | MIC [19]: 0.2 µg/mL (≈ 0.373 µM) | MIC [20]: 0.78 µg/mL (≈ 1.45 µM) | MIC [21]: 0.2 µg/mL (≈ 0.373 µM) | MIC [22]: 6.25 µg/mL (≈ 11.6 µM) | MIC [23]: 0.78 µg/mL (≈ 1.45 µM) | MIC [24]: 0.39 µg/mL (≈ 0.727 µM) | MIC [25]: 0.2 µg/mL (≈ 0.373 µM) | MIC [26]: 3.13 µg/mL (≈ 5.83 µM) | MIC [27]: 6.25 µg/mL (≈ 11.6 µM) | MIC [28]: 0.39 µg/mL (≈ 0.727 µM) | MIC [29]: 3.13 µg/mL (≈ 5.83 µM) | MIC [30]: 0.78 µg/mL (≈ 1.45 µM) | MIC [31]: 6.25 µg/mL (≈ 11.6 µM) | MIC [32]: 6.25 µg/mL (≈ 11.6 µM) | MIC [33]: 6.25 µg/mL (≈ 11.6 µM) | MIC [34]: 0.39 µg/mL (≈ 0.727 µM) | MIC [35]: 3.13 µg/mL (≈ 5.83 µM) | MIC [36]: 50 µg/mL (≈ 93.2 µM) | MIC [37]: 3.13 µg/mL (≈ 5.83 µM) | MIC ([38]; 20 h): 1.56 µg/mL (≈ 2.91 µM) | MIC [39]: 1.56 µg/mL (≈ 2.91 µM) | MIC [40]: 6.25 µg/mL (≈ 11.6 µM)

NCC1C=CC(N)C(OC2C(N)CC(NC(=O)C(O)CN)C(OC3OC(CO)C(O)C(N)C3O)C2O)O1 (stereo not drawn) [1-N-isoseryl-3',4'-dideoxy-3',4'-didehydrokanamycin B]
antimicrobial activity [41]: high antimicrobial activity

NCCC(O)C(=O)NC1CC(N)C(OC2OC(CN)C=CC2N)C(O)C1OC1OC(CO)C(O)C(N)C1O [1-AHB-eno-DKB, 1-N-(L-4-amino-2-hydroxybutyryl)-3',4'-dideoxy-3',4'-didehydrokanamycin B]
MIC [1]: 6.25 µg/mL (≈ 11.4 µM) | MIC ([2]; I0043, nutrient agar, 37° C., 20 hours, read-out: MIC): 1.56 µg/mL (≈ 2.83 µM) | MIC [3]: 6.25 µg/mL (≈ 11.4 µM) | MIC [4]: 3.13 µg/mL (≈ 5.68 µM) | MIC [5, 42]: 1.56 µg/mL (≈ 2.83 µM) | MIC [6]: 3.13 µg/mL (≈ 5.68 µM) | antimicrobial activity [41]: high antimicrobial activity | MIC [7]: 3.13 µg/mL (≈ 5.68 µM) | MIC [8]: 0.1 µg/mL (≈ 0.182 µM) | MIC [9]: 1.56 µg/mL (≈ 2.83 µM) | MIC [10]: 0.78 µg/mL (≈ 1.42 µM) | MIC [11]: 1.56 µg/mL (≈ 2.83 µM) | MIC [12]: 3.13 µg/mL (≈ 5.68 µM) | MIC ([13]; M0002, nutrient agar, 37° C., 20 hours, read-out: MIC): 3.13 µg/mL (≈ 5.68 µM) | MIC [14]: 0.2 µg/mL (≈ 0.363 µM) | MIC [15]: 6.25 µg/mL (≈ 11.4 µM) | MIC [16]: 6.25 µg/mL (≈ 11.4 µM) | MIC [17]: 3.13 µg/mL (≈ 5.68 µM) | MIC ([18]; M0148, nutrient agar, 37° C., 20 hours, read-out: MIC): 3.13 µg/mL (≈ 5.68 µM) | MIC [19]: 0.2 µg/mL (≈ 0.363 µM) | MIC [20]: 1.56 µg/mL (≈ 2.83 µM) | MIC [21]: 0.1 µg/mL (≈ 0.182 µM) | MIC [22]: 3.13 µg/mL (≈ 5.68 µM) | MIC [23]: 0.39 µg/mL (≈ 0.708 µM) | MIC [24]: 0.78 µg/mL (≈ 1.42 µM) | MIC [25]: 0.1 µg/mL (≈ 0.182 µM) | MIC [26]: 1.56 µg/mL (≈ 2.83 µM) | MIC [27]: 3.13 µg/mL (≈ 5.68 µM) | MIC [28]: 0.2 µg/mL (≈ 0.363 µM) | MIC [29]: 1.56 µg/mL (≈ 2.83 µM) | MIC [30]: 0.78 µg/mL (≈ 1.42 µM) | MIC [31]: 3.13 µg/mL (≈ 5.68 µM) | MIC [33]: 1.56 µg/mL (≈ 2.83 µM) | MIC [34]: 0.2 µg/mL (≈ 0.363 µM) | MIC [35]: 1.56 µg/mL (≈ 2.83 µM) | MIC [36]: 50 µg/mL (≈ 90.8 µM) | MIC [37]: 6.25 µg/mL (≈ 11.4 µM) | MIC [38, 42]: 1.56 µg/mL (≈ 2.83 µM) | MIC [39]: 0.78 µg/mL (≈ 1.42 µM) | MIC [40]: 12.5 µg/mL (≈ 22.7 µM)
